Laboratory results reported in PubChem BioAssay AID1963847 (Molecular Pharmacology Branch, DTP, NCI, 2024).

System: 415267-285-R-J2-PDC complex spheroid viability
Assay: Anticancer human tumor 415267-285-R-J2-PDC patient-derived breast carcinoma cell line growth inhibition [POLQ]
Conditions: for IC50: curve of first compound; for viability, T/C: stronger effect = lower value
Procedure, shortened: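 Patient-derived tumour cells were co-cultured with HUVEC and mesenchymal stem cells as multicellular spheroids at 37 °C. They were treated with POLQ inhibitors (novobiocin, ART-558, RP6685) alone or combined with other agents. Top concentrations were at or near clinical Cmax (otherwise 10 microM; SN-38 at 1 microM), decreasing in half-log steps.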

[1] = second compound 0.0316 µM, first compound 0.0316 µM
[2] = second compound 0.0316 µM, first compound 0.1 µM
[3] = second compound 0.0316 µM, first compound 0.316 µM
[4] = second compound 0.0316 µM, first compound 1 µM
[5] = second compound 0.0316 µM, first compound 3.16 µM
[6] = second compound 0.0316 µM, first compound 10 µM
[7] = second compound 0.1 µM, first compound 0.0316 µM
[8] = second compound 0.1 µM, first compound 0.1 µM
[9] = second compound 0.1 µM, first compound 0.316 µM
[10] = second compound 0.1 µM, first compound 1 µM
[11] = second compound 0.1 µM, first compound 3.16 µM
[12] = second compound 0.1 µM, first compound 10 µM
[13] = second compound 0.316 µM, first compound 0.0316 µM
[14] = second compound 0.316 µM, first compound 0.1 µM
[15] = second compound 0.316 µM, first compound 0.316 µM
[16] = second compound 0.316 µM, first compound 1 µM
[17] = second compound 0.316 µM, first compound 3.16 µM
[18] = second compound 0.316 µM, first compound 10 µM
[19] = second compound 1 µM, first compound 0.0316 µM
[20] = second compound 1 µM, first compound 0.1 µM
[21] = second compound 1 µM, first compound 0.316 µM
[22] = second compound 1 µM, first compound 1 µM
[23] = second compound 1 µM, first compound 3.16 µM
[24] = second compound 1 µM, first compound 10 µM
[25] = second compound 3.16 µM, first compound 0.0316 µM
[26] = second compound 3.16 µM, first compound 0.1 µM
[27] = second compound 3.16 µM, first compound 0.316 µM
[28] = second compound 3.16 µM, first compound 1 µM
[29] = second compound 3.16 µM, first compound 3.16 µM
[30] = second compound 3.16 µM, first compound 10 µM
[31] = second compound 10 µM, first compound 0.0316 µM
[32] = second compound 10 µM, first compound 0.1 µM
[33] = second compound 10 µM, first compound 0.316 µM
[34] = second compound 10 µM, first compound 1 µM
[35] = second compound 10 µM, first compound 3.16 µM
[36] = second compound 10 µM, first compound 10 µM
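Further: spheroids exposed to compounds for one week before readout.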
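Wherever viability, T/C is given: luminescence used as stand-in measure of viable cells; 100% = DMSO vehicle control viability.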

## CCCS(=O)(=O)Nc1ccc(F)c(C(=O)c2c[nH]c3ncc(-c4ccc(Cl)cc4)cc23)c1F + Nc1ccc(C#CCN(C(=O)Cc2ncc(C(F)(F)F)cc2C(F)(F)F)c2ccc(F)cc2)nn1
Second compound 0.0316 µM
  IC50: > 10 µM
Second compound 0.1 µM
  IC50: > 10 µM
Second compound 0.316 µM
  IC50: > 10 µM
Second compound 1 µM
  IC50: > 10 µM
Second compound 3.16 µM
  IC50: > 10 µM
Second compound 10 µM
  IC50: > 10 µM
[1]
  viability, T/C: 92%
[2]
  viability, T/C: 111%
[3]
  viability, T/C: 102%
[4]
  viability, T/C: 90.8%
[5]
  viability, T/C: 90.6%
[6]
  viability, T/C: 89.6%
[7]
  viability, T/C: 117%
[8]
  viability, T/C: 105%
[9]
  viability, T/C: 91.1%
[10]
  viability, T/C: 107%
[11]
  viability, T/C: 109%
[12]
  viability, T/C: 90.3%
[13]
  viability, T/C: 114%
[14]
  viability, T/C: 109%
[15]
  viability, T/C: 108%
[16]
  viability, T/C: 95.2%
[17]
  viability, T/C: 96.2%
[18]
  viability, T/C: 89.2%
[19]
  viability, T/C: 110%
[20]
  viability, T/C: 107%
[21]
  viability, T/C: 105%
[22]
  viability, T/C: 100%
[23]
  viability, T/C: 105%
[24]
  viability, T/C: 82.3%
[25]
  viability, T/C: 107%
[26]
  viability, T/C: 112%
[27]
  viability, T/C: 107%
[28]
  viability, T/C: 104%
[29]
  viability, T/C: 94.2%
[30]
  viability, T/C: 92.9%
[31]
  viability, T/C: 95.5%
[32]
  viability, T/C: 105%
[33]
  viability, T/C: 104%
[34]
  viability, T/C: 98.4%
[35]
  viability, T/C: 104%
[36]
  viability, T/C: 90.8%

## O=C(c1cc(Cc2n[nH]c(=O)c3ccccc23)ccc1F)N1CCN(C(=O)C2CC2)CC1 + Nc1ccc(C#CCN(C(=O)Cc2ncc(C(F)(F)F)cc2C(F)(F)F)c2ccc(F)cc2)nn1
Second compound 0.0316 µM
  IC50: > 10 µM
Second compound 0.1 µM
  IC50: > 10 µM
Second compound 0.316 µM
  IC50: > 10 µM
Second compound 1 µM
  IC50: > 10 µM
Second compound 3.16 µM
  IC50: > 10 µM
Second compound 10 µM
  IC50: > 10 µM
[1]
  viability, T/C: 100%
[2]
  viability, T/C: 106%
[3]
  viability, T/C: 106%
[4]
  viability, T/C: 97.5%
[5]
  viability, T/C: 96%
[6]
  viability, T/C: 99%
[7]
  viability, T/C: 98.4%
[8]
  viability, T/C: 103%
[9]
  viability, T/C: 109%
[10]
  viability, T/C: 97.2%
[11]
  viability, T/C: 108%
[12]
  viability, T/C: 90.8%
[13]
  viability, T/C: 106%
[14]
  viability, T/C: 115%
[15]
  viability, T/C: 101%
[16]
  viability, T/C: 114%
[17]
  viability, T/C: 101%
[18]
  viability, T/C: 105%
[19]
  viability, T/C: 108%
[20]
  viability, T/C: 109%
[21]
  viability, T/C: 108%
[22]
  viability, T/C: 98.5%
[23]
  viability, T/C: 110%
[24]
  viability, T/C: 108%
[25]
  viability, T/C: 101%
[26]
  viability, T/C: 101%
[27]
  viability, T/C: 100%
[28]
  viability, T/C: 101%
[29]
  viability, T/C: 105%
[30]
  viability, T/C: 115%
[31]
  viability, T/C: 98.9%
[32]
  viability, T/C: 96.9%
[33]
  viability, T/C: 113%
[34]
  viability, T/C: 107%
[35]
  viability, T/C: 97.8%
[36]
  viability, T/C: 102%

## CCc1cc2c(N3CCc4c(cc(Cn5ccnc5)cc4-c4cn(C)nc4C(F)(F)F)C3=O)ccnc2c(OC)n1 + Nc1ccc(C#CCN(C(=O)Cc2ncc(C(F)(F)F)cc2C(F)(F)F)c2ccc(F)cc2)nn1
Second compound 0.0316 µM
  IC50: > 10 µM
Second compound 0.1 µM
  IC50: > 10 µM
Second compound 0.316 µM
  IC50: > 10 µM
Second compound 1 µM
  IC50: > 10 µM
Second compound 3.16 µM
  IC50: > 10 µM
Second compound 10 µM
  IC50: > 10 µM
[1]
  viability, T/C: 95.8%
[2]
  viability, T/C: 92.1%
[3]
  viability, T/C: 78.2%
[4]
  viability, T/C: 87.2%
[5]
  viability, T/C: 89.7%
[6]
  viability, T/C: 70.8%
[7]
  viability, T/C: 94.3%
[8]
  viability, T/C: 88.4%
[9]
  viability, T/C: 79.6%
[10]
  viability, T/C: 85.3%
[11]
  viability, T/C: 92.9%
[12]
  viability, T/C: 68.1%
[13]
  viability, T/C: 94.2%
[14]
  viability, T/C: 90.7%
[15]
  viability, T/C: 75.7%
[16]
  viability, T/C: 84.1%
[17]
  viability, T/C: 86.4%
[18]
  viability, T/C: 71.4%
[19]
  viability, T/C: 85.9%
[20]
  viability, T/C: 96%
[21]
  viability, T/C: 81.8%
[22]
  viability, T/C: 82.1%
[23]
  viability, T/C: 87.8%
[24]
  viability, T/C: 70.7%
[25]
  viability, T/C: 90.4%
[26]
  viability, T/C: 87.3%
[27]
  viability, T/C: 78.8%
[28]
  viability, T/C: 88.8%
[29]
  viability, T/C: 78.2%
[30]
  viability, T/C: 73.3%
[31]
  viability, T/C: 94.9%
[32]
  viability, T/C: 83.8%
[33]
  viability, T/C: 90.4%
[34]
  viability, T/C: 87.9%
[35]
  viability, T/C: 77.5%
[36]
  viability, T/C: 68.2%

## O=C(Nc1ccc(O)c(NS(=O)(=O)c2ccc(F)cc2)c1)c1ccc(-c2ccccc2)cc1 + COC1C(OC(N)=O)C(O)C(Oc2ccc3c(O)c(NC(=O)c4ccc(O)c(CC=C(C)C)c4)c(=O)oc3c2C)OC1(C)C
Second compound 0.0316 µM
  IC50: 8.51 µM
Second compound 0.1 µM
  IC50: 8.85 µM
Second compound 0.316 µM
  IC50: 8.8 µM
Second compound 1 µM
  IC50: 8.54 µM
Second compound 3.16 µM
  IC50: 8.17 µM
Second compound 10 µM
  IC50: > 10 µM
[1]
  viability, T/C: 97.7%
[2]
  viability, T/C: 93%
[3]
  viability, T/C: 94.8%
[4]
  viability, T/C: 95.8%
[5]
  viability, T/C: 93.6%
[6]
  viability, T/C: 42.9%
[7]
  viability, T/C: 95.8%
[8]
  viability, T/C: 101%
[9]
  viability, T/C: 87.6%
[10]
  viability, T/C: 114%
[11]
  viability, T/C: 94.6%
[12]
  viability, T/C: 44.3%
[13]
  viability, T/C: 110%
[14]
  viability, T/C: 99.2%
[15]
  viability, T/C: 98.9%
[16]
  viability, T/C: 117%
[17]
  viability, T/C: 94.3%
[18]
  viability, T/C: 44.4%
[19]
  viability, T/C: 90.6%
[20]
  viability, T/C: 108%
[21]
  viability, T/C: 95.7%
[22]
  viability, T/C: 104%
[23]
  viability, T/C: 93.3%
[24]
  viability, T/C: 42.9%
[25]
  viability, T/C: 103%
[26]
  viability, T/C: 105%
[27]
  viability, T/C: 119%
[28]
  viability, T/C: 113%
[29]
  viability, T/C: 94.4%
[30]
  viability, T/C: 40.5%
[31]
  viability, T/C: 118%
[32]
  viability, T/C: 110%
[33]
  viability, T/C: 103%
[34]
  viability, T/C: 98.5%
[35]
  viability, T/C: 92.5%
[36]
  viability, T/C: 48.5%

## O=C(c1cc(Cc2n[nH]c(=O)c3ccccc23)ccc1F)N1CCN(C(=O)C2CC2)CC1 + COC1C(OC(N)=O)C(O)C(Oc2ccc3c(O)c(NC(=O)c4ccc(O)c(CC=C(C)C)c4)c(=O)oc3c2C)OC1(C)C
Second compound 0.0316 µM
  IC50: > 10 µM
Second compound 0.1 µM
  IC50: > 10 µM
Second compound 0.316 µM
  IC50: > 10 µM
Second compound 1 µM
  IC50: > 10 µM
Second compound 3.16 µM
  IC50: > 10 µM
Second compound 10 µM
  IC50: > 10 µM
[1]
  viability, T/C: 88%
[2]
  viability, T/C: 92.7%
[3]
  viability, T/C: 89.4%
[4]
  viability, T/C: 94.3%
[5]
  viability, T/C: 96.5%
[6]
  viability, T/C: 81.8%
[7]
  viability, T/C: 95.5%
[8]
  viability, T/C: 94%
[9]
  viability, T/C: 87%
[10]
  viability, T/C: 92%
[11]
  viability, T/C: 94.6%
[12]
  viability, T/C: 79.6%
[13]
  viability, T/C: 93.5%
[14]
  viability, T/C: 102%
[15]
  viability, T/C: 98.2%
[16]
  viability, T/C: 96.6%
[17]
  viability, T/C: 90.4%
[18]
  viability, T/C: 95.1%
[19]
  viability, T/C: 98.5%
[20]
  viability, T/C: 101%
[21]
  viability, T/C: 96.8%
[22]
  viability, T/C: 90.9%
[23]
  viability, T/C: 96%
[24]
  viability, T/C: 77.9%
[25]
  viability, T/C: 97.2%
[26]
  viability, T/C: 91.9%
[27]
  viability, T/C: 90.8%
[28]
  viability, T/C: 94.8%
[29]
  viability, T/C: 98.3%
[30]
  viability, T/C: 81.4%
[31]
  viability, T/C: 97.6%
[32]
  viability, T/C: 105%
[33]
  viability, T/C: 92%
[34]
  viability, T/C: 93.2%
[35]
  viability, T/C: 89.2%
[36]
  viability, T/C: 79.7%
